{"source": "patent US20030157072A1", "about": "“Nusap, a novel gene encoding a tissue-specific nuclear protein, useful as a diagnostic tool and therapeutic agent” (priority 2003, published 2003)", "key": {"nusap gene expression": {"tested_on": "nusap gene expression", "test": "Northern analysis of nusap gene expression in MC3T3-E1 cells", "assay_type": "cell-based, mouse", "method": "FIG. 2 represents a Northern blot analysis showing nusap gene expression in sub-confluent cultures of MC3T3-E1 cells after treatment with vehicle or 1,25(OH)2D3 (10^−8 M) for 24 hours. The size (kb) of the three transcripts is indicated.\n(§1) Northern blot analysis of nusap expression in hydroxyurea treated (1 mM) MC3T3-E1 cells. Cells were harvested at the indicated time points (minutes) after treatment. The different cell cycle phases were assigned based on the RNA levels of histone H4, a S-phase marker. The blots were hybridized with the following cDNA probes: human histone H4, pFO002; and a 0.8 kb NuSAP BglII/AspI restriction fragment. The 18S cDNA probe was used as a control to assess equal loading.\n(§2) Growth arrest of MC3T3-E1 cells by serum starvation was accomplished by changing complete medium (10% FCS) to medium containing 0.1% FCS in subconfluent cultures. The quiescent cells were released from growth arrest by adding complete medium (10% FCS), whereafter cells were harvested at the indicated time points.\n(§3) Total cellular RNA was extracted from cell cultures using TriZol LS. Foetal mice and soft tissues from adult mice (C57BL/6; 8 wk old) were directly homogenized in TriZol (GIBCO BRL), while femurs and tibias were ground to a fine powder prior to homogenization, followed by total cellular RNA extraction. […]"}, "[1]": {"tested_on": "mouse osteoblastic MC3T3-E1 cells", "test": "[3H]-thymidine incorporation, proliferation of MC3T3-E1 cells", "assay_type": "cell-based", "conditions": "varying doses, 24 and 48 h, versus vehicle", "method": "(a) The proliferation of MC3T3-E1 cells was analyzed after treatment for 24 and 48 h with varying doses of 1,25(OH)2D3 by monitoring [^3H]-thymidine incorporation. Data represent mean±SD of six replicates of a representative experiment. Values of vehicle (ethanol) treated cells were taken as 100%. (*P<0.001; versus vehicle, t test) All culture reagents, unless otherwise mentioned, were obtained from GIBCO BRL (Life Technologies, Grand Island, N.Y.). Murine osteoblast-like MC3T3-E1 cells (Sudo et al. (1983). J. Cell Biol. 96:191-198) were purchased from Riken Cell Bank (H. Kodama, Japan), and maintained in αMEM supplemented with 10% heat-inactivated FCS and penicillin-streptomycin (100 U/ml and […], respectively). Sub-confluent MC3T3-E1 cell cultures are defined to be in the proliferation state, while confluent and mineralising cells have entered the differentiation stage. COS-1 and NIH3T3 cells (American Type Culture Collection, Manassas, Va.) were cultured respectively in Dulbecco's modified eagle medium (hereinafter DME) and DME-F12, plus 10% heat-inactivated FCS. For NIH3T3 cells, the medium was supplemented with glutamax (2 mM) and glucose (4.5 g/l). Cultures were grown at 37° C. in a humidified atmosphere containing 5% CO2 in air. […] Significant effects were already observed after 24 hours and this inhibition became more pronounced with increasing time. […]"}, "[2]": {"tested_on": "DNA synthesis (BrdUrd incorporation)", "test": "BrdUrd immunostaining in transfected COS-1 cells", "assay_type": "cell-based", "conditions": "20 μg/ml for several hours", "method": "[…] […] C is the merger of A and B. In some cells, BrdUrd incorporation is distinctly aggregated (E), and these sites overlap with NuSAP-GFP (D) and F (which is the merger of D and E).\nAlternatively, cells were fixed and permeabilized in 0.4% glutaraldehyde/0.5% Triton X100/PBS for 15 minutes at room temperature. After incubation in 0.5 mg NaBH4/ml PBS (10 minutes), and blocking in 5% BSA/PBS (10 minutes), cells were incubated with primary antibodies for 1 h. Cells were washed and after incubation with 50% normal serum (Dako) (10 minutes), cells were incubated with secondary antibodies conjugated to Alexa-488 or -546 dye (Molecular Probes) (1 hour) and finally mounted using Dako mounting medium. Antibodies and normal serum were diluted in 0.5% Tween20/PBS. Analysis was done on a Nikon inverted microscope Diaphot 300 (Plan Apo 60/1.40 oil) connected to a Bio-Rad MRC1024 confocal microscope and images were captured by LaserSharp (version 3.2) and processed using Adobe Photoshop 5.5 (Adobe Systems Inc., San Jose Calif.). The images showing a-tubulin localization were taken using a Leitz DM microscope and were recorded using a cooled charge-coupled device camera (Photometrics Inc., Tucson, Ariz.) and IP-Lab software. […]"}, "[3]": {"tested_on": "histone H4 gene expression", "test": "Northern analysis of histone H4 RNA levels in MC3T3-E1 cells", "assay_type": "cell-based, mouse", "conditions": "1 mM, within 45 minutes of treatment", "method": "as §1, §2, §3"}, "[4]": {"tested_on": "microtubules (α-tubulin) / GFP-tagged NuSAP", "test": "Immunofluorescence localization of GFP-tagged NuSAP in transfected COS-1 cells", "conditions": "for distribution of NuSAP in the nucleoli during interphase: COS-1 cells in interphase; for distribution of NuSAP and α-tubulin in mitotic cells: mitotic COS-1 cells, nocodazole 10 μM for 1 hour, taxol 5 μM for 1 hour"}}, "data": [{"smiles": "C=C1/C(=C\\C=C2/CCC[C@]3(C)[C@@H]([C@H](C)CCCC(C)(C)O)CC[C@@H]23)C[C@@H](O)C[C@@H]1O", "note": "[1α,25(OH)2D3, 1α,25-dihydroxyvitamin D3]", "values": [{"measurement": "nusap gene expression (Northern analysis)", "setting": "nusap gene expression; sub-confluent MC3T3-E1 cells, 10^-8 M for 24 hours versus vehicle", "result": "inhibition of nusap gene expression"}, {"measurement": "proliferation measured by [3H]-thymidine incorporation", "setting": "[1]", "result": "inhibited the proliferation of these cells"}]}, {"smiles": "C[C@@]1(CO)[C@H](O)CC[C@@]2(C)[C@H]1CC[C@H]1C[C@@H]3C[C@@]12CC[C@]3(O)CO", "note": "[aphidicolin]", "values": [{"measurement": "immunostaining for BrdUrd", "setting": "[2]", "result": "loss of immunostaining for BrdUrd"}]}, {"smiles": "NC(=O)NO", "note": "[hydroxyurea]", "values": [{"measurement": "nusap gene expression (RNA level)", "setting": "nusap gene expression; MC3T3-E1 cells, 1 mM, within 45 minutes of treatment", "result": "markedly down-regulated"}, {"measurement": "histone H4 RNA levels", "setting": "[3]", "result": "undetectable"}]}, {"smiles": "COC(=O)Nc1nc2ccc(C(=O)c3cccs3)cc2[nH]1", "note": "[nocodazole]", "values": [{"measurement": "distribution of NuSAP in the nucleoli during interphase", "setting": "[4]", "result": "Neither nocodazole nor taxol treatment affected"}, {"measurement": "distribution of NuSAP and α-tubulin in mitotic cells", "setting": "[4]", "result": "NuSAP and α-tubulin redistributed throughout the cell"}]}, {"smiles": "CC(=O)O[C@H]1C(=O)[C@@]2(C)[C@H]([C@H](OC(=O)c3ccccc3)[C@]3(O)C[C@H](OC(=O)[C@H](O)[C@@H](NC(=O)c4ccccc4)c4ccccc4)C(C)=C1C3(C)C)[C@]1(OC(C)=O)CO[C@@H]1C[C@@H]2O", "note": "[taxol]", "values": [{"measurement": "distribution of NuSAP in the nucleoli during interphase", "setting": "[4]", "result": "Neither nocodazole nor taxol treatment affected"}, {"measurement": "distribution of NuSAP and α-tubulin in mitotic cells", "setting": "[4]", "result": "resulted in NuSAPs translocation to these structures"}]}]}
